Read-outs that look alike come from different tables or passages of the source.
How the values were obtained:
[1] = target: covalently-crosslinked hexameric CA A14C/E45C/W184A/M185A (CA121) (Human immunodeficiency virus type 1 group M subtype B, UniProt P12493, A146C/E177C/M317A/W316A); test: Thermal shift assay (TSA) for effect on HIV-1 CA hexamer stability; type: binding; conditions: compound 20 µM
in vitro = type: cell-based; conditions: human, TZM-GFP cells, 72 h, XTT; mean ± standard deviation; read-out: CC50 (concentration of compound causing 50% cell death)
HIV-1NL4-3 = test: Anti-HIV-1 assay in TZM-GFP cells (LTR-activated GFP expression); conditions: for EC50: read-out: EC50 (concentration of compound inhibiting HIV-1 replication by 50%); for antiviral activity against HIV-1 (in words): screened at 20 μM
TZM-GFP cells = test: in vitro; type: cell-based; conditions: for CC50: TZM-GFP cells, 72 h, XTT, mean ± standard deviation, read-out: CC50 (concentration of compound causing 50% cell death)
[2] = HLMs; cited from earlier work
[3] = Microsomal stability assay, human liver microsomes; type: in vitro ADME; conditions: for half-life at 1 µM: human liver microsomes
[4] = Microsomal stability assay, mouse liver microsomes; type: in vitro ADME
[5] = Human immunodeficiency virus 1, 48 h

| SMILES | CC50 at 72 h (in vitro) [µM] | EC50 (HIV-1NL4-3; [5]) [µM] | other results |
| --- | --- | --- | --- |
| COC(=O)[C@@H]1CCCN1C(=O)[C@H](CSCc1ccccc1)NC(=O)Cn1c(=O)[nH]c2ccccc2c1=O [Compound 6] | > 100 | > 20 | effect on CA hexamer stability (in words) [1]: no such effect was observed |
| CN(C(=O)[C@H](Cc1ccccc1)NC(=O)Cn1c(=O)[nH]c2ccccc2c1=O)c1ccc(F)cc1 [Compound 13] |  |  | effect on CA hexamer stability (in words) [1]: moderate CA hexamer stabilizing effects; CC50 (TZM-GFP cells): > 100 µM; EC50 (HIV-1NL4-3): 8 ± 1.3 µM; antiviral activity against HIV-1 (in words) (HIV-1NL4-3): significant anti-HIV-1 activities |
| Cc1ccc(N(C)C(=O)[C@@H](NC(=O)Cn2c(=O)[nH]c3ccccc3c2=O)C(C)(C)C)cc1 [Compound 16] |  |  | CC50 (TZM-GFP cells): > 100 µM; EC50 (HIV-1NL4-3): > 20 µM |
| COC(=O)[C@@H]1CCCN1C(=O)CNC(=O)Cn1c(=O)[nH]c2ccccc2c1=O [Compound 3] | > 100 | > 20 | effect on CA hexamer stability (in words) [1]: complete loss of the CA hexamer stabilizing effect |
| N#Cc1ccc(NNC(=O)Cn2c(S)nnc2-c2ccccc2)cc1 [Compound 25] | > 100 | > 20 |  |
| COC(=O)C1CCCN1C(=O)C(NC(=O)Cn1c(=O)[nH]c2ccccc2c1=O)C(C)C (stereo not shown) [Compound 2] | > 100 | > 20 | cytotoxicity (in words) (TZM-GFP cells; screened at 100 μM): no cytotoxicity; antiviral activity against HIV-1 (in words) (HIV-1NL4-3): no significant antiviral activity |
| O=C(Cn1c(S)nnc1-c1ccccc1)NNc1ccc(-c2ccccc2)cc1 [Compound 36] | > 100 | > 20 |  |
| CN(NC(=O)Cn1c(S)nnc1-c1ccccc1)c1ccccc1 [Compound 39] | > 50 | > 20 |  |
| CCC(C)[C@H](NC(=O)Cn1c(=O)[nH]c2ccccc2c1=O)C(=O)N1CCC[C@H]1C(=O)OC (stereo partly shown) [Compound 7] | > 100 | > 20 | effect on CA hexamer stability (in words) [1]: no such effect was observed |
| CCC(C)[C@H](NC(=O)Cn1c(=O)[nH]c2ccccc2c1=O)C(=O)N(C)c1ccc(Cl)cc1 (stereo partly shown) [Compound 20] |  |  | CC50 (TZM-GFP cells): > 100 µM; EC50 (HIV-1NL4-3): > 20 µM |
| N#Cc1ccc(NNC(=O)Cn2c(S)nnc2-c2cccc3ccccc23)cc1 [Compound 38] | > 100 | > 20 |  |
| O=C(Cn1c(=O)[nH]c2ccccc2c1=O)N[C@@H](Cc1ccccc1)C(=O)Nc1ccccc1 [Compound 12] |  |  | effect on CA hexamer stability (in words) [1]: did not show activity in either assay; CC50 (TZM-GFP cells): < 100 µM; EC50 (HIV-1NL4-3): > 20 µM; antiviral activity against HIV-1 (in words) (HIV-1NL4-3): did not show activity in either assay |
| O=C(Cn1c(S)nnc1-c1cccc2ccccc12)NNc1ccccc1 [Compound 35] | > 100 | > 20 |  |
| CCC(C)[C@H](NC(=O)Cn1c(=O)[nH]c2ccccc2c1=O)C(=O)N(C)c1ccccc1 (stereo partly shown) [Compound 18] |  |  | CC50 (TZM-GFP cells): > 100 µM; EC50 (HIV-1NL4-3): > 20 µM |
| O=C(Cn1c(S)nnc1-c1ccccc1)NNc1ccccc1 [Compound 23] | > 100 | > 20 |  |
| CC(C)C[C@H](NC(=O)Cn1c(=O)[nH]c2ccccc2c1=O)C(=O)N(C)c1ccccc1 [Compound 14] |  |  | CC50 (TZM-GFP cells): > 100 µM; EC50 (HIV-1NL4-3): > 20 µM |
| Cc1[nH]c2ccccc2c1CC(=O)N[C@@H](Cc1ccccc1)C(=O)N(C)c1ccccc1 [Compound 1, PF74, reference compound] |  | 0.61 ± 0.2 | half-life (t1/2) in human liver microsomes [2]: less than 1 min |
| CN(C(=O)[C@H](Cc1ccccc1)NC(=O)Cn1c(=O)[nH]c2ccccc2c1=O)c1ccccc1 [Compound 11] | > 100 | 6.9 ± 0.8 | effect on CA hexamer stability (in words) [1]: moderate CA hexamer stabilizing effects; antiviral activity against HIV-1 (in words) (HIV-1NL4-3): significant anti-HIV-1 activities |
| COC(=O)[C@@H]1CCCN1C(=O)[C@H](Cc1cccc2cc[nH]c12)NC(=O)Cn1c(=O)[nH]c2ccccc2c1=O [Compound 4] | < 100 | > 20 |  |
| Cc1ccccc1-c1nnc(S)n1CC(=O)NNc1ccc(C#N)cc1 [Compound 34] | > 100 | > 20 |  |

| SMILES | CC50 at 72 h (in vitro) [µM] | EC50 (HIV-1NL4-3; [5]) [µM] | other results |
| --- | --- | --- | --- |
| Cc1ccc(-c2nnc(S)n2CC(=O)NNc2ccc(-c3ccccc3)cc2)cc1 [Compound 30] | > 100 | > 20 |  |
| CC(C)(C)[C@H](NC(=O)Cn1c(=O)[nH]c2ccccc2c1=O)C(=O)Nc1ccccc1 [Compound 17] |  |  | CC50 (TZM-GFP cells): > 100 µM; EC50 (HIV-1NL4-3): > 20 µM |
| O=C(Cn1c(S)nnc1-c1ccccc1)NNc1ccccn1 [Compound 22] | > 100 | > 20 |  |
| O=C(Cn1c(S)nnc1-c1ccccc1)NNc1ccc(F)cc1 [Compound 24] | > 100 | > 20 |  |
| Cc1ccc(-c2nnc(S)n2CC(=O)NNc2ccccc2)cc1 [Compound 27] | ~100 | > 20 |  |
| CC(C)C[C@H](NC(=O)Cn1c(=O)[nH]c2ccccc2c1=O)C(=O)Nc1ccccc1 [Compound 15] |  |  | CC50 (TZM-GFP cells): > 100 µM; EC50 (HIV-1NL4-3): > 20 µM |
| CCC(C)[C@H](NC(=O)Cn1c(=O)[nH]c2ccccc2c1=O)C(=O)Nc1ccccc1 (stereo partly shown) [Compound 19] |  |  | CC50 (TZM-GFP cells): > 100 µM; EC50 (HIV-1NL4-3): > 20 µM |
| O=C(Cn1c(=O)[nH]c2ccccc2c1=O)N[C@@H](Cc1ccccc1)C(=O)N1CCC[C@H]1C(=O)Nc1ccccc1 [Compound 10] | > 100 | 1.6 ± 0.1 | effect on CA hexamer stability (in words) [1]: moderate CA hexamer stabilizing effects; half-life (t1/2) in HLMs, fold longer than PF74 ([3]; HLMs, relative to PF74): 44 fold; half-life at 1 µM ([3]; pH 7.4, with Cobicistat 0.5 µM (CYP3A inhibitor), in the presence of CYP3A inhibitor Cobicistat 0.5 µM, read-out: Phase I metabolic stability t1/2, HLM (+Cobi)): > 120 min; half-life at 1 µM ([3]; pH 7.4, 1 µM compound, NADPH, read-out: Phase I metabolic stability t1/2, HLM): 31 min; half-life at 1 µM ([4]; pH 7.4, mouse liver microsomes, 1 µM compound, NADPH, read-out: Phase I metabolic stability t1/2, MLM): 2.9 min; half-life at 1 µM ([4]; pH 7.4, with Cobicistat 0.5 µM (CYP3A inhibitor), mouse liver microsomes, in the presence of CYP3A inhibitor Cobicistat 0.5 µM, read-out: Phase I metabolic stability t1/2, MLM (+Cobi)): 85 min; antiviral potency (EC50), fold less than PF74 (HIV-1NL4-3; relative to PF74 EC50 = 0.61 μM): 2.5 fold; antiviral activity against HIV-1 (in words) (HIV-1NL4-3): significant anti-HIV-1 activities |
| Cc1ccc(-c2nnc(S)n2CC(=O)NNc2ccc(C#N)cc2)cc1 [Compound 29] | > 100 | > 20 |  |
| COC(=O)[C@@H]1CCCN1C(=O)[C@H](Cc1cccc2cc[nH]c12)NC(=O)Cn1c(=O)[nH]c2ccccc2c1=O [Compound 5] |  |  | CC50 (TZM-GFP cells): > 100 µM; EC50 (HIV-1NL4-3; TZM-GFP cells, MOI = 1, 48 h, mean ± standard deviation, at least two independent experiments): > 20 µM |
| N#Cc1cccc(NNC(=O)Cn2c(S)nnc2-c2ccccc2)c1 [Compound 26] | > 100 | > 20 |  |
| Cc1ccccc1-c1nnc(S)n1CC(=O)NNc1ccccc1 [Compound 32] | > 100 | > 20 |  |
| Cc1ccc(NNC(=O)Cn2c(S)nnc2-c2ccccc2C)cc1 [Compound 33] | > 100 | > 20 |  |
| Cc1ccc(-c2nnc(S)n2CC(=O)NNc2ccccn2)cc1 [Compound 31] | > 100 | > 20 |  |
| Cc1ccc(-c2nnc(S)n2CC(=O)NNc2ccc(F)cc2)cc1 [Compound 28] | > 100 | > 20 |  |
| O=C(Cn1c(=O)[nH]c2ccccc2c1=O)N[C@@H](CSCc1ccccc1)C(=O)N1CCC[C@H]1C(=O)Nc1ccccc1 [Compound 8] | 44 ± 5 | > 20 |  |
| O=C(Cn1c(=O)[nH]c2ccccc2c1=O)N[C@@H](Cc1cccc2cc[nH]c12)C(=O)N1CCC[C@H]1C(=O)Nc1ccccc1 [Compound 9] | > 100 | > 20 |  |
| CCC(C)[C@H](NC(=O)Cn1c(=O)[nH]c2ccccc2c1=O)C(=O)Nc1ccc(-c2nnn[nH]2)cc1 (stereo partly shown) [Compound 21] |  |  | CC50 (TZM-GFP cells): > 100 µM; EC50 (HIV-1NL4-3): > 20 µM |
| Cc1ccc(NNC(=O)Cn2c(S)nnc2-c2cccc3ccccc23)cc1 [Compound 37] | > 100 | > 20 |  |

From PMC7232165 (Viruses, 2020)
